Source: BindingDB's records for doi:10.1016/s0960-894x(98)00721-5 (Tumor Biology Center, 1999)

Molecular target: Phospholipase A2 (Naja mossambica mossambica)
Experiment: Phospholipase A2 inhibition using mixed micelles pH-stat assay and 14 kDa-Phospholipase A2 from Naja mossambica mossambica

Structure (SMILES) | IC50 [µM]
CCCCCCCCCCCCCCCC(=O)OCCCCCCC[C@H](COP(=O)(O)OC)NC(C)=O [Hexadecanoic acid (R)-8-acetylamino-9-(hydroxy-methoxy-phosphoryloxy)-nonyl ester] | 5
CCCCCCCC(=O)OCCCCCCC[C@H](COP(=O)(O)OC)NC(C)=O [Octanoic acid (R)-8-acetylamino-9-(hydroxy-methoxy-phosphoryloxy)-nonyl ester] | 3.1
CCCCCCCCCCCCCCCCOCCOCCCCCCC[C@H](COP(=O)(O)OC)NC(C)=O [Phosphoric acid (R)-2-acetylamino-9-(2-hexadecyloxy-ethoxy)-nonyl ester methyl ester] | 1.7
COP(=O)(O)OC[C@@H](CCCCCCCO)NC(C)=O [Phosphoric acid (R)-2-acetylamino-9-hydroxy-nonyl ester methyl ester] | 350
CCCCCCCCCCCCCCCC[C@H](COP(=O)(O)OC)NC(C)=O [Phosphoric acid (R)-2-acetylamino-octadecyl ester methyl ester] | 3.4
COP(=O)(O)OC[C@@H](CCCCCCCOC(=O)CCC(=O)OC1CCC2(C)C(=CCC3C2CCC2(C)C(C(C)CCCC(C)C)CCC32)C1)NC(C)=O (stereo partly drawn) [Succinic acid (R)-8-acetylamino-9-(hydroxy-methoxy-phosphoryloxy)-nonyl ester 17-(1,5-dimethyl-hexyl)-10,13-dimethyl-2,3,4,7,8,9,10,11,12,13,14,15,16,17-tetradecahydro-1H-cyclopenta[a]phenanthren-3-yl ester] | 2.3
